# Molecular target: T1, stearoyl-CoA desaturase (SCD) (Rattus norvegicus, UniProt P07308)
# T1 construct: from tissue; host or cells: liver microsomes of male Sprague Dawley rats, with SCD induced by a carbohydrate-rich diet after fasting/feeding cycles
# T1 sequence (P07308 1-358): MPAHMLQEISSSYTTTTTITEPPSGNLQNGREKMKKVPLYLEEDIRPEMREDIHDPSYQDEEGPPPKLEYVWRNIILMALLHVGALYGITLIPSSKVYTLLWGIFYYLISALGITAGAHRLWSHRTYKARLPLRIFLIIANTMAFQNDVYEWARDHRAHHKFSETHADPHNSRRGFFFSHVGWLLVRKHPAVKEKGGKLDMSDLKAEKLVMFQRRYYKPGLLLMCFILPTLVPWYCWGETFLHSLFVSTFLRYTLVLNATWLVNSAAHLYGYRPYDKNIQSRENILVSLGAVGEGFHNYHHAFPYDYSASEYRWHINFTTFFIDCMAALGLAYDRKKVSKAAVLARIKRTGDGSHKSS
# Experiment: SCD assay in rat liver microsomes ([3H]stearoyl CoA desaturation, adapted from Talamo and Bloch)
# Assay type: biochemical
# Settings: rat liver microsomes 0.2 mg/ml assay final, 30 min preincubation, 45 min reaction, room temperature
# Text: The identification of compounds of the invention as SCD inhibitors was readily accomplished using the SCD enzyme and microsomal assay procedure described in Talamo and Bloch (1969) Analytical Biochemistry 29:300-304.
# The rat liver microsomes were collected according to the procedure described in Ozols (1990) Methods Enzm, 182:225.
# Male Spraque Dawley Rats were placed on regimented fasting protocol for one week to stimulate SCD enzymatic activity. 48-hour periods were alternated between feeding and fasting to induce and down-regulate SCD activity with SCD activity being induced via carbohydrate rich diet prior to liver perfusion and collection.
# The rats were anesthetized with Isoflurane inhalation anesthetic, the liver perfused with cold phosphate buffered saline (PBS), weighed, and chilled in cold homogenization buffer (250 mM sucrose, 10 mM Tris, 1 mM EDTA, pH 7.6.
# The livers were finely minced and placed in homogenization tube. 40 mL of homogenization buffer was added to the homogenization tube and the liver homogenized and centrifuged in a pre-chilled […] for 10 min at 4° C.
# Following centrifugation, the supernatant was collected and the pellet removed and discarded. The supernatant was centrifuge at 10,000 G for 35 minutes. Following centrifugation, the supernatant was collect and the pellet discarded. The supernatant was then centrifuged in a pre-chilled 45-Ti rotor at 130,000 G (41,000 RPM) for 90 minutes at 4° C.
# The supernatant was then aspirated off and the collected microsomal pellet washed in 25 mL of Glycerol PBS (1×PBS 7.4, 20% Glycerol) and resuspended in 4-5 volumes of Glycerol PBS.
# The protein concentration of the microsomal preparation was determined by BCA assay (Pierce) and the microsomes were aliquoted and stored at −80° C.
# Biobeads were ground to a smaller size in a mortar and pestle and resuspended in 3.6% TCA. The beads were then filtered through […] mesh.
# SCD was determined in the desaturase assay buffer. This assay buffer contained 0.1 M Tris buffer, pH 7.2, 2 mM NADH, 4.8 mM ATP, 0.5 mM CoA, 4.8 mM MgCl2, and 0.1% BSA.
# The Procedure for the SCD Assay (Adapted from Talamo and Bloch (1969) Analytical Biochemistry 29:300-304)
# 1 μl of each compound of Formula I was added to an assay plate by a low volume (0.5-10 μL) multichannel pipette. A DMSO control was also prepared. The microsomes were quickly thawed and added to assay buffer so that a concentration of 0.4 mg/ml was achieved (0.2 mg/ml assay final). 50 μl of the microsome suspension in assay buffer was then added into each well in the compound assay plate, the plate was covered, and the microsomes preincubated with the compounds for 30 minutes on the orbital shaker, 50-75 rpm, at room temperature.
# After preincubation, the reaction was initiated by the addition of 50 μl of substrate solution (20 μM Stearoyl CoA, [3H]Stearoyl CoA, 74 nCi) to the preincubated microsomes/compound suspensions in MilliQ (Millipore) H2O. The reaction mixtures were then incubated for 45 minutes on the orbital shaker at 50-75 rpm at room temperature.
# The reaction was terminated by the addition of 10 μl of 21% […] (TCA) to the reaction mixture followed incubation on the orbital shaker for 30 minutes at 50-75 rpm at room temperature followed by centrifugation for 5 minutes at 3700 rpm.
# 50 μl of a 6% Bio-Bead suspension in H2O was added to the reaction mixture and the assay plate was sealed. The Bio-Bead mixture was incubated on the orbital shaker for 1 hour, 100-150 rpm at room temperature, and then the mixture was centrifuged at 2000 g for 5 minutes to pellet the Bio-Beads.
# 25 μl of the supernatant was harvested from each well and transferred to a detection plate. 100 μl of OptiPhase SuperMix scinitillation cocktail (containing sufficient NaOH to neutralize the TCA) was added and the solutions mixed by vigorous shaking (300-400 rpm) for 5 minutes at room temperature. […]
row,SMILES,IC50
1,"O=C(NCCn1c(=O)c(-c2cccnc2)nc2cnc(NCc3ccc(Cl)c(Cl)c3)nc21)c1ccsc1 [Compound 37, N-[2-(2-{[(3,4-dichlorophenyl)methyl]amino}-7-oxo-6-(3-pyridyl)(8-hydropteridin-8-yl))ethyl]-3-thienylcarboxamide]",5010 nM
2,"CC(=O)NCCn1c(=O)c(-c2cccnc2)nc2cnc(NCc3ccc(F)cc3)nc21 [Compound 11, N-[2-(2-{[(4-fluorophenyl)methyl]amino}-7-oxo-6-(3-pyridyl)-8-hydropteridin-8-yl)ethyl]acetamide]",5700 nM
3,"COc1ccc(-c2nc3cnc(NCc4ccc(Cl)c(Cl)c4)nc3n(CCNC(=N)N)c2=O)cc1 [Compound 16, amino[2-(2-{[(3,4-dichlorophenyl)methyl]amino}-6-(4-methoxyphenyl)-7-oxo(8-hydropteridin-8-yl))ethyl]carboxamidine]",11000 nM
4,"CC(=O)NCCn1c(=O)c(-c2ncccn2)nc2cnc(NCc3ccc(Cl)c(Cl)c3)nc21 [Compound 21, N-[2-(2-{[(3,4-dichlorophenyl)methyl]amino}-7-oxo-6-pyrimidin-2-yl-8-hydropteridin-8-yl)ethyl]acetamide]",4340 nM
5,"COc1ccc(-c2nc3cnc(NCc4ccc(Cl)c(Cl)c4)nc3n(CCNC(=O)c3cccc(C)c3)c2=O)cc1 [Compound 30, N-[2-(2-{[(3,4-dichlorophenyl)methyl]amino}-6-(4-methoxyphenyl)-7-oxo(8-hydropteridin-8-yl))ethyl](3-methylphenyl)carboxamide]",3270 nM
6,"CC(=O)NCCn1c(=O)c(-c2cccnc2)nc2cnc(NCc3cccc(Cl)c3)nc21 [Compound 27, N-[2-(2-{[(3-chlorophenyl)methyl]amino}-7-oxo-6-(3-pyridyl)-8-hydropteridin-8-yl)ethyl]acetamide]",9100 nM
7,"CC(=O)NCCn1c(=O)cnc2cnc(NCc3cccc(Cl)c3)nc21 [Compound 25, N-[2-(2-{[(3-chlorophenyl)methyl]amino}-7-oxo-8-hydropteridin-8-yl)ethyl]acetamide]",10000 nM
8,"CC(=O)NCCn1c(=O)cnc2cnc(NCc3ccc(Cl)cc3)nc21 [Compound 28, N-[2-(2-{[(4-chlorophenyl)methyl]amino}-7-oxo-8-hydropteridin-8-yl)ethyl]acetamide]",21900 nM
9,"COc1ccc(-c2nc3cnc(NCc4ccc(F)c(F)c4)nc3n(CCNC(C)=O)c2=O)cc1 [Compound 18, N-[2-(2-{[(3,4-difluorophenyl)methyl]amino}-6-(4-methoxyphenyl)-7-oxo-8-hydropteridin-8-yl)ethyl]acetamide]",13000 nM

# The next molecules have a lower IC50 than those just listed; values first:
row,IC50,SMILES
1,2800 nM,"CCC(=O)NCCn1c(=O)c(-c2ccc(OC)cc2)nc2cnc(NCc3ccc(Cl)c(Cl)c3)nc21 [Compound 6, N-[2-(2-{[(3,4-dichlorophenyl)methyl]amino}-6-(4-methoxyphenyl)-7-oxo-8-hydropteridin-8-yl)ethyl]propanamide]"
2,2600 nM,"CC(=O)NCCn1c(=O)c(-c2cccnc2)nc2cnc(NCc3ccccc3)nc21 [Compound 9, N-(2-{7-oxo-2-[benzylamino]-6-(3-pyridyl)-8-hydropteridin-8-yl}ethyl)acetamide]"
3,2210 nM,"COc1ccc(-c2nc3cnc(NCc4ccc(Cl)c(Cl)c4)nc3n(CCNC(C)=O)c2=O)cc1F [Compound 22, N-[2-(2-{[(3,4-dichlorophenyl)methyl]amino}-6-(3-fluoro-4-methoxyphenyl)-7-oxo-8-hydropteridin-8-yl)ethyl]acetamide]"
4,1890 nM,"CC(=O)NCCn1c(=O)c(-c2ccc(Cl)cc2)nc2cnc(NCc3ccc(Cl)c(Cl)c3)nc21 [Compound 32, N-[2-(2-{[(3,4-dichlorophenyl)methyl]amino}-6-(4-chlorophenyl)-7-oxo-8-hydropteridin-8-yl)ethyl]acetamide]"
5,1800 nM,"COCC(=O)NCCn1c(=O)c(-c2ccc(OC)cc2)nc2cnc(NCc3ccc(Cl)c(Cl)c3)nc21 [Compound 8, N-[2-(2-{[(3,4-dichlorophenyl)methyl]amino}-6-(4-methoxyphenyl)-7-oxo(8-hydropteridin-8-yl))ethyl]-2-methoxyacetamide]"
6,1800 nM,"CC(=O)NCCn1c(=O)c(-c2ccc(Cl)cc2)nc2cnc(NCc3ccc(F)cc3)nc21 [Compound 33, N-[2-(6-(4-chlorophenyl)-2-{[(4-fluorophenyl)methyl]amino}-7-oxo-8-hydropteridin-8-yl)ethyl]acetamide]"
7,1180 nM,"O=C(NCCn1c(=O)c(-c2cccnc2)nc2cnc(NCc3ccc(Cl)c(Cl)c3)nc21)c1ccc(F)cc1 [Compound 38, N-[2-(2-{[(3,4-dichlorophenyl)methyl]amino}-7-oxo-6-(3-pyridyl)(8-hydropteridin-8-yl))ethyl](4-fluorophenyl)carboxamide]"
8,340 nM,"CC(=O)NCCn1c(=O)cnc2cnc(NCc3ccc(Cl)c(Cl)c3)nc21 [Compound 17, N-[2-(2-{[(3,4-dichlorophenyl)methyl]amino}-7-oxo-8-hydropteridin-8-yl)ethyl]acetamide]"
9,230 nM,"CC(=O)NCCn1c(=O)c(-c2cccnc2)nc2cnc(NCc3ccc(Cl)c(Cl)c3)nc21 [Compound 12, N-[2-(2-{[(3,4-dichlorophenyl)methyl]amino}-7-oxo-6-(3-pyridyl)-8-hydropteridin-8-yl)ethyl]acetamide]"
10,160 nM,"COc1ccc(-c2nc3cnc(NCc4ccc(Cl)c(Cl)c4)nc3n(CCNC(C)=O)c2=O)cc1 [Compound 1, N-[2-(2-{[(3,4-dichlorophenyl)methyl]amino}-6-(4-methoxyphenyl)-7-oxo-8-hydropteridin-8-yl)ethyl]acetamide]"

# Source: patent US7662819B2, “Pteridinone derivatives for use as stearoyl CoA desaturase inhibitors” (Gilead Palo Alto, Inc., priority 2007, dated 2010)
